This note sets out measurements from patent EP4471048A1, “PEPTIDE INHIBITORS OF INTERLEUKIN-23 RECEPTOR” (Zealand Pharma A/S, priority 2023, dated 2024).

The target in this experiment is T1, human IL-23R (Homo sapiens, UniProt Q5VWK5).
T1 sequence (Q5VWK5 22-629): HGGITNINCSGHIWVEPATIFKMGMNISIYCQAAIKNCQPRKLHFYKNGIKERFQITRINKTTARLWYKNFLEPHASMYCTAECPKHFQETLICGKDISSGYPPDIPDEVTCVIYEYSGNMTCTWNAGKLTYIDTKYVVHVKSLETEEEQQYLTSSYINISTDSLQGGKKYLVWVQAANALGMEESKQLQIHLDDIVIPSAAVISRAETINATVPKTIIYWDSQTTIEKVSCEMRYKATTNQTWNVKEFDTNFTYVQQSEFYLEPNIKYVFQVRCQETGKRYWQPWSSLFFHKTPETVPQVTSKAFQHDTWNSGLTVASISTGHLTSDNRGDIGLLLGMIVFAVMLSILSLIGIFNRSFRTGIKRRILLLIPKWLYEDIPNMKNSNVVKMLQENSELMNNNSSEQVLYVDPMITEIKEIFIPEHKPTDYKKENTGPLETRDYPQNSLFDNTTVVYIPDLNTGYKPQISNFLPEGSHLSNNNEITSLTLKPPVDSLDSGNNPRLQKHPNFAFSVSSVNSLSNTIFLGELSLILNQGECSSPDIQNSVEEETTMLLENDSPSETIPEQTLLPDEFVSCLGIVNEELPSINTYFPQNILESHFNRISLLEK
Description: biochemical. Conditions: for Emax: read-out: % displacement (hIL-23R NIuc). An outline of the steps:
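BRET displacement of a TAMRA-labelled reference compound from N-terminal Nanoluc-IL-23R fusion protein in membranes from stably transfected HEK293 cells. Incubation 2 h at room temperature, then Nanoluc substrate was added and the TAMRA/Nanoluc ratio read. IC50 and maximal displacement came from 4-parameter logistic fits.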

*1 amine or outer side, *2 acyl side, *3 side chain or, on linkers, in order; H or OH if unused. Where a SMILES comes first, the peptide text is derived from it. Bridges are numbered along the chain shown (N, C = ends). [ ]: non-standard residue; d: D form. X14 = O=C(CC[C@H](N[*:2])C(=O)[*:3])[*:1]; β3hW = N[C@H](CC(=O)O)Cc1c[nH]c2ccccc12; 2Nal = N[C@@H](Cc1ccc2ccccc2c1)C(=O)O; AEF = NCCOc1ccc(C[C@H](N)C(=O)O)cc1; 3Pal = N[C@@H](Cc1cccnc1)C(=O)O; β3hE = N[C@@H](CCC(=O)O)CC(=O)O; αMeL = CC(C)C[C@](C)(N)C(=O)O; β3hK = NCCCC[C@H](N)CC(=O)O; dOrn = NCCC[C@@H](N)C(=O)O; Dab = NCC[C@H](N)C(=O)O

What is called IC50 is the concentration needed to halve the response being measured. Consider `COc1ccc(C[C@@H]2NC(=O)[C@@H]3CCC(=O)N[C@@H](CCCCNC(=O)CC[C@@H](C(=O)N[C@@H](CCCCNC(=O)c4cncnc4)C(N)=O)NC(=O)[C@](C)(CC(C)C)NC(=O)[C@H](Cc4ccc5ccccc5c4)NC2=O)C(=O)N[C@@H]([C@@H](C)O)C(=O)N[C@@H](C(C)C)C(=O)N[C@@H](Cc2c[nH]c4ccccc24)C(=O)N[C@@H](CCC(N)=O)C(=O)N3)cc1` [Compound 56, K(1c)(6c)^†TVWQE(6c)[Y(Me)][2-Nal][2-Me-Leu]E(1c)[K(3,5-pyrimidine)]-[NH2]], for which the midpoint of inhibition, the IC50, lay at 210 nM and the Emax was found to be 98%.
As to `CNC(=O)[C@H](Cc1cccnc1)NC(=O)[C@H](CCN)NC(=O)[C@@H]1CCC(=O)NCCC[C@@H]2NC(=O)CC[C@H](NC(=O)[C@H](CCC(N)=O)NC(=O)[C@H](Cc3c[nH]c4ccccc34)NC(=O)CNC2=O)C(=O)N[C@@H](Cc2ccc(OCCN)cc2)C(=O)N[C@@H](Cc2ccc3ccccc3c2)C(=O)N[C@@](C)(CC(C)C)C(=O)N1` [Compound 90, [Orn](1c)(6c)^†GWQE(6c)[Y(2-aminoethoxy)][2-Nal][2-Me-Leu]E(1c)[Dab][3-(3-Pyridyl)-Ala]-[NHMe]], the half-maximal inhibitory concentration (IC50) is 6.4 nM and the Emax worked out at 101%.
Take `CNC(=O)[C@H](Cc1cccnc1)NC(=O)[C@H](CCN)NC(=O)[C@@H]1CCCCNC(=O)[C@@H]2CCC(=O)N[C@@H](Cc3c[nH]c4ccccc34)C(=O)N[C@@H](CCC(N)=O)C(=O)N[C@@H](CCC(=O)N2)C(=O)N[C@@H](Cc2ccc(OCCN)cc2)C(=O)N[C@@H](Cc2ccc3ccccc3c2)C(=O)N[C@@](C)(CC(C)C)C(=O)N1` [Compound 106, [iso-Glu](1c)^‡(6c)^†WQE(6c)[Y(2-aminoethoxy)][2-Nal][2-Me-Leu]K(1c)[Dab][3-(3-Pyridyl)-Ala]-[NHMe]] (WQE[AEF][2Nal][αMeL]K[Dab][3Pal]-NHMe; linker N-3-7 via X14): the “% displacement (hIL-23R NIuc)” value is reported as 99% and half-maximal inhibition (IC50) required 2.5 nM.
`CNC(=O)[C@H](Cc1cccnc1)NC(=O)[C@H](CCN)NC(=O)[C@@H]1CCC(=O)NCCCCC[C@@H]2NC(=O)CC[C@H](NC(=O)[C@H](CCC(N)=O)NC(=O)[C@H](Cc3c[nH]c4ccccc34)NC2=O)C(=O)N[C@@H](Cc2ccc(OCCN)cc2)C(=O)N[C@@H](Cc2ccc3ccccc3c2)C(=O)N[C@@](C)(CC(C)C)C(=O)N1` [Compound 93, [hLys](1c)(6c)^†WQE(6c)[Y(2-aminoethoxy)][2-Nal][2-Me-Leu]E(1c)[Dab][3-(3-Pyridyl)-Ala]-[NHMe]]: the “% displacement (hIL-23R NIuc)” value is 99% and the IC50 was 3 nM.
As to `CC(C)C[C@]1(C)NC(=O)[C@H](Cc2ccc3ccccc3c2)NC(=O)[C@H](Cc2ccc(OCCN)cc2)NC(=O)[C@@H]2CC(=O)N[C@H](CCCNC(=O)CC[C@@H](C(=O)N[C@@H](CCN)C(=O)N[C@@H](Cc3cccnc3)C(N)=O)NC1=O)C(=O)N[C@@H]([C@@H](C)O)C(=O)N[C@@H](C(C)C)C(=O)N[C@@H](Cc1c[nH]c3ccccc13)C(=O)N[C@@H](CCC(N)=O)C(=O)N2` [Compound 10, [{d}Orn](1c)(6c)^†TVWQD(6c)[Y(2-aminoethoxy)][2-Nal][2-Me-Leu]E(1c)[Dab][3-(3-Pyridyl)-Ala]-[NH2]] ([dOrn]TVWQD[AEF][2Nal][αMeL]E[Dab][3Pal]-NH2; lactam 1-10, N-6), 0.67 nM corresponded to half-maximal inhibition (IC50) and the Emax stood at 107%.
For `CNC(=O)[C@H](Cc1cccnc1)NC(=O)[C@H](CCN)NC(=O)[C@@H]1CCC(=O)NCCCC[C@H]2CC(=O)N[C@@H](Cc3c[nH]c4ccccc34)CC(=O)N[C@@H](CCC(N)=O)C(=O)N[C@@H](CCC(=O)N2)C(=O)N[C@@H](Cc2ccc(OCCN)cc2)C(=O)N[C@@H](Cc2ccc3ccccc3c2)C(=O)N[C@@](C)(CC(C)C)C(=O)N1` [Compound 100, [beta-hLys](1c)(6c)^†[beta-hTrp]QE(6c)[Y(2-aminoethoxy)][2-Nal][2-Me-Leu]E(1c)[Dab][3-(3-Pyridyl)-Ala]-[NHMe]] ([β3hK][β3hW]QE[AEF][2Nal][αMeL]E[Dab][3Pal]-NHMe; lactam 1-8, N-4), the IC50 is 150 nM and the Emax was found to be 97%.
With `COc1ccc(C[C@@H]2NC(=O)[C@@H]3CCC(=O)N[C@@H](CCCCNC(=O)CC[C@@H](C(=O)N[C@@H](CCCCNC(=O)Cc4ccncc4)C(N)=O)NC(=O)[C@](C)(CC(C)C)NC(=O)[C@H](Cc4ccc5ccccc5c4)NC2=O)C(=O)N[C@@H]([C@@H](C)O)C(=O)N[C@@H](C(C)C)C(=O)N[C@@H](Cc2c[nH]c4ccccc24)C(=O)N[C@@H](CCC(N)=O)C(=O)N3)cc1` [Compound 54, K(1c)(6c)^†TVWQE(6c)[Y(Me)][2-Nal][2-Me-Leu]E(1c)[K(4-pyridylacetyl)]-[NH2]], the IC50 is 290 nM and the Emax was 105%.
With `CC[C@H](C)[C@@H]1NC(=O)[C@@H]2CCCCNC(=O)CC[C@@H](CC(=O)N[C@@H](Cc3cccnc3)C(=O)NC)NC(=O)[C@](C)(CC(C)C)NC(=O)[C@H](Cc3ccc4ccccc4c3)NC(=O)[C@H](Cc3ccc(OCCN)cc3)NC(=O)[C@H](CCC(=O)N2)NC(=O)[C@H](CCC(N)=O)NC(=O)[C@H](Cc2c[nH]c3ccccc23)NC(=O)[C@H](C(C)C)NC1=O` [Compound 61, K(1c)(6c)^†IVWQE(6c)[Y(2-aminoethoxy)][2-Nal][2-Me-Leu][beta-hGlu](cyclo1)[3-(3-Pyridyl)-Ala]-[NHMe]] (KIVWQE[AEF][2Nal][αMeL][β3hE][3Pal]-NHMe; lactam 1-10, N-6), inhibition was half-maximal at 11 nM (IC50) and the Emax is 99%.
Turning to `CC[C@H](C)[C@@H]1NC(=O)[C@@H]2CCCCNC(=O)CC[C@@H](C(=O)NCC(=O)N[C@H](Cc3cccnc3)C(N)=O)NC(=O)[C@](C)(C(C)C)NC(=O)[C@H](CC3CC3)NC(=O)[C@H](Cc3ccc(C)cc3)NC(=O)[C@H](CCC(=O)N2)NC(=O)[C@H](CCC(N)=O)NC(=O)[C@H](Cc2c[nH]c3ccccc23)NC(=O)[C@H](C(C)C)NC1=O` [Compound 23, K(1c)(6c)^†IVWQE(6c)[F(4-Me)][Cyclopropyl-Ala][2-Me-Val]E(1c)G[{d}3-(3-Pyridyl)-Ala]-[NH2]], the “% displacement (hIL-23R NIuc)” value came out at 111% and the IC50 turned out to be 89 nM.
With `CC[C@H](C)[C@@H]1NC(=O)[C@@H]2CCCCNC(=O)CC[C@@H](C(=O)N[C@@H](CCN)C(=O)N[C@@H](Cc3cncnc3)C(=O)NC)NC(=O)[C@](C)(CC(C)C)NC(=O)[C@H](Cc3ccc4ccccc4c3)NC(=O)[C@H](Cc3ccc(OCCN)cc3)NC(=O)[C@H](CCC(=O)N2)NC(=O)[C@H](CCC(N)=O)NC(=O)[C@H](Cc2c[nH]c3ccccc23)NC(=O)[C@H](C(C)C)NC1=O` [Compound 78, K(1c)(6c)^†IVWQE(6c)[Y(2-aminoethoxy)][2-Nal][2-Me-Leu]E(1c)[Dab][3-(3,5-Pyrimidyl)-Ala]-[NHMe]], the “% displacement (hIL-23R NIuc)” value was found to be 100% and the midpoint of inhibition, the IC50, lay at 3 nM.
For `CNC(=O)[C@H](Cc1cccnc1)NC(=O)[C@H](Cc1ccccn1)NC(=O)[C@@H]1CCC(=O)NCCCC[C@@H]2NC(=O)CC[C@H](NC(=O)[C@H](CCC(N)=O)NC(=O)[C@H](Cc3c[nH]c4ccccc34)NC(=O)CCNC2=O)C(=O)N[C@@H](Cc2ccc(OCCN)cc2)C(=O)N[C@@H](Cc2ccc3ccccc3c2)C(=O)N[C@@](C)(CC(C)C)C(=O)N1` [Compound 88, K(1c)(6c)^†[3-Aminopropanoyl]WQE(6c)[Y(2-aminoethoxy)][2-Nal][2-Me-Leu]E(1 c)[3-(2-Pyridyl)-Ala][3-(3-Pyridyl)-Ala]-[NHMe]], the IC50 amounted to 0.052 nM and the Emax is 100%.
